From the supplement of paper PMC12325586

Test system: MIA PaCa-2
Protocol: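 MIA PaCa-2 Tet-on shOFD1 pancreatic cancer cells (2000 cells/well, 96-well) were treated with Selleck FDA-approved library compounds at 0, 1, 5, 10, 25 and 50 µM, with extra concentrations added where needed, for 72 h at 37 °C. Knockdown wells also received 100 ng/mL doxycycline; control wells received DMSO without doxycycline. Viability was read by CCK-8 absorbance at 450 nm and normalised to DMSO control wells. IC50 was fitted in GraphPad Prism as a 4-parameter logistic with bottom fixed at 0 and top fixed at 1; at least 3 technical replicate wells per condition.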

[1] = OFD1 knockdown: no (no doxycycline)
[2] = OFD1 knockdown: yes (Tet-on shOFD1, 100 ng/mL doxycycline)

COc1cc2c(Oc3ccc4[nH]c(C)cc4c3F)ncnc2cc1OCCCN1CCCC1 [S1017]
IC50 cell viability [1]: 13.1 µM | IC50 cell viability [2]: 13.5 µM

O=S(=O)(O)CCSSCCS(=O)(=O)O [S1201]
IC50 cell viability [1]: 82.1 µM | IC50 cell viability [2]: 70.3 µM

OC(CNCC(O)C1CCc2cc(F)ccc2O1)C1CCc2cc(F)ccc2O1 (configuration not stated) [S1549]
IC50 cell viability [1]: 28.8 µM | IC50 cell viability [2]: 27.2 µM

C[C@]1(O)C[C@@H](c2nc(-c3ccc4ccc(-c5ccccc5)nc4c3)c3c(N)nccn32)C1 [S1091]
IC50 cell viability [1]: 48.3 µM | IC50 cell viability [2]: 49.9 µM

CN(C)C/C=C/C(=O)Nc1cc2c(Nc3ccc(F)c(Cl)c3)ncnc2cc1O[C@H]1CCOC1 [S1011]
IC50 cell viability [1]: 66.1 µM | IC50 cell viability [2]: 87.7 µM

CCc1c2c(nc3ccc(OC(=O)N4CCC(N5CCCCC5)CC4)cc13)-c1cc3c(c(=O)n1C2)COC(=O)[C@]3(O)CC [S2217]
IC50 cell viability [1]: 43.2 µM | IC50 cell viability [2]: 47.2 µM

Cc1ccc(NC(=O)c2ccc(CN3CCN(C)CC3)cc2)cc1Nc1nc(-c2cccnc2)cs1 [S1064]
IC50 cell viability [1]: 68.8 µM | IC50 cell viability [2]: 66.2 µM

CC1(COc2ccc3c(c2)ncn3-c2ccc3cccc(N4CCC(N)CC4)c3n2)COC1 [S2730]
IC50 cell viability [1]: 13.2 µM | IC50 cell viability [2]: 12.9 µM

CC#C[C@]1(O)CC[C@H]2[C@@H]3CCC4=CC(=O)CCC4=C3[C@@H](c3ccc(N(C)C)cc3)C[C@@]21C [S2606]
IC50 cell viability [1]: 9.08 µM | IC50 cell viability [2]: 8.71 µM

C=C(c1ccc(C(=O)O)cc1)c1cc2c(cc1C)C(C)(C)CCC2(C)C [S2098]
IC50 cell viability [1]: 19.7 µM | IC50 cell viability [2]: 21.3 µM

O=C(O)C(=O)O.[NH-][C@@H]1CCCC[C@H]1[NH-].[Pt+2] [S1224]
IC50 cell viability [1]: 60.3 µM | IC50 cell viability [2]: 57.3 µM

COc1cc2ncnc(Nc3ccc(F)c(Cl)c3)c2cc1NC(=O)/C=C/CN1CCCCC1 [S2727]
IC50 cell viability [1]: 30.1 µM | IC50 cell viability [2]: 29.6 µM

CC(C)c1cc(-c2n[nH]c(=O)n2-c2ccc3c(ccn3C)c2)c(O)cc1O [S1159]
IC50 cell viability [1]: 2.42 µM | IC50 cell viability [2]: 2.01 µM

Nc1ccc(C(=O)O)c(O)c1 [S4073]
IC50 cell viability [1]: 8.25 µM | IC50 cell viability [2]: 7.73 µM

CC[C@H](NC(=O)[C@H](C)NC)C(=O)N1C[C@@H](O)C[C@H]1Cc1c(-c2[nH]c3cc(F)ccc3c2C[C@@H]2C[C@H](O)CN2C(=O)[C@H](CC)NC(=O)[C@H](C)NC)[nH]c2cc(F)ccc12 [S7015]
IC50 cell viability [1]: 21.9 µM | IC50 cell viability [2]: 20.3 µM

O=C1c2c(O)ccc(O)c2C(=O)c2c(NCCNCCO)ccc(NCCNCCO)c21 [S2485]
IC50 cell viability [1]: 3.55 µM | IC50 cell viability [2]: 3.77 µM

CC(C)n1c(/C=C/C(O)CC(O)CC(=O)O)c(-c2ccc(F)cc2)c2ccccc21 (configuration not stated) [S1909]
IC50 cell viability [1]: 8.13 µM | IC50 cell viability [2]: 7.35 µM

NC(=O)c1ccc(I)c([N+](=O)[O-])c1 [S1087]
IC50 cell viability [1]: 69.1 µM | IC50 cell viability [2]: 51.3 µM

CC(=O)O[C@H]1C(=O)[C@@]2(C)[C@H]([C@H](OC(=O)c3ccccc3)[C@]3(O)C[C@H](OC(=O)[C@H](O)[C@@H](NC(=O)c4ccccc4)c4ccccc4)C(C)=C1C3(C)C)[C@]1(OC(C)=O)CO[C@@H]1C[C@@H]2O [S1150]
IC50 cell viability [1]: 19 µM | IC50 cell viability [2]: 17.6 µM

COc1cc([C@@H]2c3cc4c(cc3[C@@H](O[C@@H]3O[C@@H]5CO[C@@H](C)O[C@H]5[C@H](O)[C@H]3O)[C@H]3COC(=O)[C@H]23)OCO4)cc(OC)c1O [S1225]
IC50 cell viability [1]: 2.31 µM | IC50 cell viability [2]: 2.03 µM

C[C@]12CC[C@@H]3c4ccc(O)cc4C[C@@H](CCCCCCCCC[S+]([O-])CCCC(F)(F)C(F)(F)F)[C@H]3[C@@H]1CC[C@@H]2O (some centres not stated) [S1191]
IC50 cell viability [1]: 25.6 µM | IC50 cell viability [2]: 24.5 µM

Nc1cccc2c1C(=O)N(C1CCC(=O)NC1=O)C2=O (configuration not stated) [S1567]
IC50 cell viability [1]: 15.7 µM | IC50 cell viability [2]: 15.5 µM

O=NN(CCCl)C(=O)NC1CCCCC1 [S1840]
IC50 cell viability [1]: 18.8 µM | IC50 cell viability [2]: 16.9 µM

C[C@]12CC[C@@H]3c4ccc(O)cc4CC[C@H]3[C@@H]1CCC2=O [S1665]
IC50 cell viability [1]: 38.1 µM | IC50 cell viability [2]: 37.8 µM

C[C@@H]1CCN(C(=O)CC#N)C[C@@H]1N(C)c1ncnc2[nH]ccc12 [S2789]
IC50 cell viability [1]: 2.19 µM | IC50 cell viability [2]: 2.38 µM

Nc1ncn([C@@H]2O[C@H](CO)[C@@H](O)[C@H]2O)c(=O)n1 [S1782]
IC50 cell viability [1]: 12.6 µM | IC50 cell viability [2]: 10.7 µM

N#CC[C@H](C1CCCC1)n1cc(-c2ncnc3[nH]ccc23)cn1 [S1378]
IC50 cell viability [1]: 70.3 µM | IC50 cell viability [2]: 68.4 µM

CC(=O)c1c(C)c2cnc(Nc3ccc(N4CCNCC4)cn3)nc2n(C2CCCC2)c1=O [S1116]
IC50 cell viability [1]: 43.1 µM | IC50 cell viability [2]: 46.4 µM

N#CC[C@H](C1CCCC1)n1cc(-c2ncnc3[nH]ccc23)cn1 [S2902]
IC50 cell viability [1]: 19.6 µM | IC50 cell viability [2]: 17.9 µM

CC(C)C(=O)Nc1ccc([N+](=O)[O-])c(C(F)(F)F)c1 [S1908]
IC50 cell viability [1]: 2.71 µM | IC50 cell viability [2]: 2.5 µM

CCOc1nc2cccc(C(=O)O)c2n1Cc1ccc(-c2ccccc2-c2nnn[nH]2)cc1 [S1578]
IC50 cell viability [1]: 1.56 µM | IC50 cell viability [2]: 1.3 µM

CC(=O)O[C@]1(C(C)=O)CC[C@H]2[C@@H]3C=C(C)C4=CC(=O)CC[C@]4(C)[C@H]3CC[C@@]21C [S1304]
IC50 cell viability [1]: 2.01 µM | IC50 cell viability [2]: 1.81 µM

COc1cc(Nc2c(C#N)cnc3cc(OCCCN4CCN(C)CC4)c(OC)cc23)c(Cl)cc1Cl [S1014]
IC50 cell viability [1]: 6.31 µM | IC50 cell viability [2]: 6.07 µM

Cn1cc(CNCC2CCN(c3ncc(C(=O)NO)cn3)CC2)c2ccccc21 [S1096]
IC50 cell viability [1]: 0.41 µM | IC50 cell viability [2]: 0.39 µM

Nc1ncn([C@H]2C[C@H](O)[C@@H](CO)O2)c(=O)n1 [S1200]
IC50 cell viability [1]: 74.8 µM | IC50 cell viability [2]: 77.2 µM

CC1=C(/C=C/C(C)=C/C=C/C(C)=C/C(=O)O)C(C)(C)CCC1 [S1653]
IC50 cell viability [1]: 13.6 µM | IC50 cell viability [2]: 14.3 µM

COc1cc2nccc(Oc3ccc(NC(=O)C4(C(=O)Nc5ccc(F)cc5)CC4)cc3)c2cc1OC [S4001]
IC50 cell viability [1]: 5.3 µM | IC50 cell viability [2]: 4.97 µM

C#Cc1cccc(Nc2ncnc3cc(OCCOC)c(OCCOC)cc23)c1 [S1023]
IC50 cell viability [1]: 59.1 µM | IC50 cell viability [2]: 65.3 µM

CC[C@@]1(O)C(=O)OCc2c1cc1n(c2=O)Cc2cc3c(CN(C)C)c(O)ccc3nc2-1 [S1231]
IC50 cell viability [1]: 54.5 µM | IC50 cell viability [2]: 49.8 µM

O=P1(N(CCCl)CCCl)NCCCO1 (configuration not stated) [S2057]
IC50 cell viability [1]: 20.3 µM | IC50 cell viability [2]: 18.6 µM

CS(=O)(=O)c1ccc(C(=O)Nc2ccc(Cl)c(-c3ccccn3)c2)c(Cl)c1 [S1082]
IC50 cell viability [1]: 61.8 µM | IC50 cell viability [2]: 69 µM

CN(C)CCOc1ccc(/C(=C(/CCCl)c2ccccc2)c2ccccc2)cc1 [S1776]
IC50 cell viability [1]: 47.6 µM | IC50 cell viability [2]: 46.9 µM

O=C(c1cc(Cc2n[nH]c(=O)c3ccccc23)ccc1F)N1CCN(C(=O)C2CC2)CC1 [S1060]
IC50 cell viability [1]: 53.8 µM | IC50 cell viability [2]: 31.9 µM

CC(=O)O[C@]1(C(C)=O)CC[C@H]2[C@@H]3C[C@H](C)C4=CC(=O)CC[C@]4(C)[C@H]3CC[C@@]21C [S2567]
IC50 cell viability [1]: 10.2 µM | IC50 cell viability [2]: 8.9 µM

CS(=O)(=O)OCCCCOS(C)(=O)=O [S1692]
IC50 cell viability [1]: 11.6 µM | IC50 cell viability [2]: 12.1 µM

O=C(O)CCCc1ccc(N(CCCl)CCCl)cc1 [S4288]
IC50 cell viability [1]: 21.7 µM | IC50 cell viability [2]: 19.3 µM
